According to patent publication US4517005A, “Aminophenol urease inhibitors and urease inhibited urea based fertilizer compositions” (Allied Corporation, priority 1983, dated 1985):
Where a name gives a salt, the structure may show the parent alone.

How the values were obtained:
[1] = tested on: urease in Wisconsin soil (Plano silt loam, pH 5.4); assay: Urease Inhibition Efficacy Test in Wisconsin soil (Plano silt loam); format: biochemical; details: 40 micrograms test compound per gram soil; 42.8 mg urea per 20 g air-dry soil; incubated at 25° C. for three days; remaining urea; run in triplicate
Procedure: (§1) Efficacy tests were conducted to evaluate the efficacy of certain representative aminophenol compounds as urease inhibitors. The inhibition tests were run in New York soil (Cazenovia silt loam, pH 7.0) or in Wisconsin soil (Plano silt loam, pH 5.4)
(§2) Evaluations (run in triplicate) consisted of applying 800 micrograms of the test compound in 5 ml of water and 42.8 mg of urea in 1 mL of water to 20 g of air-dry soil in a glass bottle. The bottle was capped with perforated aluminum foil and incubated at 25° C.C for three days prior to extraction with 100 mL of a 2M KCl solution containing 0.5 mg of phenylmercuric acetate. The extracts were then analyzed for remaining urea using an autoanalyzer. Percent inhibition was calculated as % Inhibition=[1-(A-B/A-C)]×100 where A is urea recovered from unincubated sample (urea added to soil and immediately extracted); B is urea recovered from inhibited sample; and C is urea recovered from the control (uninhibited sample).

[2] = tested on: urease in New York soil (Cazenovia silt loam, pH 7.0); assay: Urease Inhibition Efficacy Test in New York soil (Cazenovia silt loam); format: biochemical; details: 40 micrograms test compound per gram soil; 42.8 mg urea per 20 g air-dry soil; incubated at 25° C. for three days; remaining urea; run in triplicate
Procedure: as §1, §2

Row | Molecule | % Inhibition 40 micrograms per gram soil Wisconsin pH 5.4 [1] | % Inhibition 40 micrograms per gram soil Cazenovia pH 7.0 [2]
1 | O=C(Nc1ccc(O)cc1)c1ccccc1 [4'-Hydroxybenzanilide] | 14% | 50%
2 | CNc1ccc(O)cc1 [4-(N--methylamino)phenol sulfate] | 55% | 82%
3 | O=C(O)CNc1ccc(O)cc1 [N--(4-Hydroxyphenyl)glycine] | 61% | 82%
4 | Nc1ccc(O)cc1 [4-aminophenol] | – | 46%
5 | CN(C)c1ccc(O)cc1 [4-(N,N--dimethylamino)-phenol hydrochloride] | 49% | 77%
6 | 2,6-Dichloroiminophenol, sodium salt | – | 69%
7 | Nc1ccccc1O [2-aminophenol] | – | 8%
8 | Oc1ccc(Nc2ccccc2)cc1 [4-(N--phenyl)aminophenol] | 53% | 69%
